Experimental data from patent US7772197B2, “1,3,5-triazines for treatment of viral diseases” (1,3,5-Triazines for Treatment of Viral Diseases, priority 2002, dated 2010).
Read-outs that look alike come from different tables or passages of the source.

Tests used:
[1] = test system: bovine viral diarrhea virus (BVDV) Singer strain; assay: Treatment of BVDV-infected BT cells; type: cell-based; details: Bovine viral diarrhea virus isolates and strains
Protocol: The BVDV strain used for drug testing was the Singer strain. This virus also causes a cytopathic effect that is measurable and allows estimation of the level of infection. The visible cytopathology can be used as an endpoint for titrating the virus by 50% tissue culture infectious dose (TCID50). The BVDV was propagated in bovine turbinate (BT cells). The virus TCID50 was determined by counting the cytopathic effect at the endpoint dilution. Briefly, confluent BT cells in 96-well plates were infected with the virus at 8 independent serial 10-fold dilutions. All the plates were incubated for five days at 37° C. in 5% CO2. Each well was scored as positive or negative appearance of visible cytopathic effect. The titers were calculated by the method of Reed and Muench, Am. J. Hyg. 27:493-497 (1938), and the mean titer and standard deviation for each of the 3 replicates for each drug concentration and the positive and negative control were calculated.
Virus susceptible cells (CV-1 or BT cells) were seeded in 96-well plates at 2×10^4 cells/well. The virus was inoculated onto the cell monolayers at a MOI of 0.001˜0.002 to keep 30 plaque forming units (pfu) in each well. The inoculum was maintained in 37° C. for about one hour and the supernatant was discarded. Fresh media containing appropriate drug concentration was added in each well. […] The virus titer was determined as described above. […]

[2] = test system: Measles virus (MV) Nagahata strain; assay: Treatment of measles virus-infected CV-1 cells; type: cell-based; details: Measles morbillivirus
Protocol: MV Nagahata strain was used for drug testing. Compared to some laboratory strains, this virus strain replicates lytically in primary human embryonic lung cells and causes extensive cytopathic effect during acute infection. The virus stock was prepared by growing the virus on CV-1 cells at a MOI of 0.01. The titer of the virus stock was determined by plaque formation assay after series dilution.
Virus susceptible cells (CV-1 or BT cells) were seeded in 96-well plates at 2×10^4 cells/well. The virus was inoculated onto the cell monolayers at a MOI of 0.001˜0.002 to keep 30 plaque forming units (pfu) in each well. The inoculum was maintained in 37° C. for about one hour and the supernatant was discarded. Fresh media containing appropriate drug concentration was added in each well. Untreated control was run in parallel. Each drug was tested in triplicate. Three days after infection, cytopathic effect (CPE) was examined in the untreated control wells. […] The plates went through one “freeze-thaw” cycle to release intracellular virus. The virus stock was saved for next round of passage. The virus titer was determined as described above. Virus at a titer of 10^5˜10^6 pfu/ml was produced by this method.

HIV-1 LAI = assay: Treatment of HIV-1-infected MT-2 cells with nucleoside analogues, p24 ELISA; type: cell-based; details: for EC50: Human immunodeficiency virus 1, MT2, wild-type HIV strain LAI, MT-2 cells
Protocol: The strains of HIV-1 used for primary drug screening are HIV-1 LAI or the appropriate strain of NRTI resistant HIV for studies of cross-resistance. Virus was propagated on MT-2 cells at an multiplicity of infection (MOI) of 0.01 to generate virus stocks. Briefly, the MT-2 cells were suspended in RPMI 1640 media supplemented with 10% fetal bovine serum, streptomycin and penicillin (cRPMI) and grown in a 37° C. incubator containing 5% CO2. Serial dilution of the virus and infection of MT-2 cells were followed by an ELISA detecting the capsid protein of HIV-1 (p24) and used to determine the titer of the virus stocks (50% tissue culture infectious dose (TCID50)). The ELISA was performed according to the manufacturer's instructions. The MT-2 cells are also used for visualizing the cytopathic effects of HIV-1 growth (e.g. syncytia formation).
(§1) 0.1 ml of a 3×10^5 cells/ml MT-2 cell suspension were seeded in 96-well plates at 3×10^4 cells/well. The compounds to be assayed were diluted in a separate 96-well at ten times (10×) the concentration needed for the screen. 22 μl of the 10× compounds was then added to the wells in triplicate except for six control wells, containing uninfected MT-2 cells alone (3 wells) and untreated HIV-infected MT-2 cells (3 wells). This was followed by the addition of HIV-1 at an MOI of 0.01, except for the three wells serving as the uninfected control. 0.1 ml of cRPMI was added to the uninfected well instead of virus. After the addition of virus, the 96-well plate was centrifuged at 1,200×g for two hours to enhance the adsorption of the virus by the MT-2 cells (see, e.g., O'Doherty, J. Virol. 74:10074-10080 (2000)). After the centrifugation step, the 96-well plate was then incubated in a 37° C. incubator containing 5% CO2 for three days. At the end of this time period the virus and cells were mixed by gentle pipetting followed by a 1 minute spin at 600×g to pellet the cells. The supernatant of each well was then serially diluted 1,000-fold into new 96-well plates to serve as inoculum for the next passage and assayed by ELISA for the amount of p24 produced. The next passage was performed as described above, except that the virus used to infect the cells was derived from the 1,000-fold dilution plate. To generate an EC50 value, half-log concentrations of mutagenic nucleoside or nucleotide analogue capable of eradicating virus in a single passage are tested as above to generate a dose-response curve.

[3] = test system: HIV-1 RTMC, with 67N, 70R, 215F and 219Q mutations; assay: Sensitivity of NRTI-resistant HIV strain RTMC, MT-2 cells; type: cell-based; details: Human immunodeficiency virus 1, MT2
Protocol: as §1, with “plate.” for “plate. To generate an EC50 value, half-log concentrations of mutagenic nucleoside or nucleotide analogue capable of eradicating virus in a single passage are tested as above to generate a dose-response curve.”
(§2) To determine if there is resistance of HIV NRTI resistant strains to mutagenic nucleoside analogues, NRTI resistant strains were grown in the presence of 5-aza-dC to determine whether the EC50 for 5-aza-dC is different from the WT strain (HIV-1 LAI). […] Growth of HIV NRTI resistant strains in the presence of the appropriate concentration of NRTI was used as a positive control.
(§3) Three HIV NRTI resistant strains (HIV-1 LAI-M184V, HIV-1 RTMDR1, with 74V, 41L, 106A and 215Y mutations, and HIV-1 RTMC, with 67N, 70R, 215F and 219Q mutations) were used to test the effectiveness of 5-aza-dC. […] Mutations include: M41L, E44D, A62V, K65R, D67N, T69DN, T69S_SS, K70R, L74V, V75I, F77L, Y115F, F116Y, V118I, Q151M, M184V, L210W, T215F and K219QE.
(§4) The effectiveness of DHAdC was tested against wild-type HIV strains and NRTI resistant HIV strains as described in Example 2. The following strains were tested: HIV-1 LAI, wild-type; HIV-I LAI-M184V-M184V mutation with resistance to lamivudine (3TC); HIV-1 RTMDR1-74V, 41L, 106A and 215Y mutations with resistance to zidovudine, didanosine, nevirapine and other non-nucleoside reverse transcriptase inhibitors; and HIV-1 RTMC-67N, 70R, 215F and 219Q with resistance to zidovudine.

HIV-1 LAI-M184V = assay: Sensitivity of NRTI-resistant HIV strain M184V, MT-2 cells; type: cell-based; details: Human immunodeficiency virus 1, MT2
Protocol: as §1, with “plate.” for “plate. To generate an EC50 value, half-log concentrations of mutagenic nucleoside or nucleotide analogue capable of eradicating virus in a single passage are tested as above to generate a dose-response curve.”
as §2, §3, §4

[4] = test system: HIV-1 RTMDR1, with 74V, 41L, 106A and 215Y mutations; assay: Sensitivity of NRTI-resistant HIV strain RTMDR1, MT-2 cells; type: cell-based; details: Human immunodeficiency virus 1, MT2
Protocol: as §1, with “plate.” for “plate. To generate an EC50 value, half-log concentrations of mutagenic nucleoside or nucleotide analogue capable of eradicating virus in a single passage are tested as above to generate a dose-response curve.”
as §2
Three HIV NRTI resistant strains (HIV-1 LAI-M184V, HIV-1 RTMDR1, with 74V, 41L, 106A and 215Y mutations, and HIV-1 RTMC, with 67N, 70R, 215F and 219Q mutations) were used to test the effectiveness of 5-aza-dC. […]

HIV-1 RT proviral DNA = assay: Frequency of mutations to the viral genome induced by 5-aza-dC (sequencing of proviral clones); type: cell-based; details: 30 μM
Protocol: The viral genomic DNA from cells treated with the deoxyribonucleoside analog 5-aza-dC (30 μM) was purified using a Qiagen DNeasy® Kit. 1 μg of genomic DNA was used to amplify a 1 kb region of the HIV-1 RT proviral DNA by PCR. The PCR product was then cloned into a TOPO® cloning vector. A Millipore Miniprep Kit was used to purify plasmid containing proviral inserts. About 45 positive clones were sequenced in both directions by a Beckman Coulter CEQ 8000. The sequencing results were analyzed and assembled using the DNASTAR Stagman program. Each mutated base was counted and the mutation rate was calculated over the total number of sequenced nucleotides. Sixty-one mutations were found in 26,187 bases sequenced in the 5-aza-dC treated cells. Only one mutation in the drug-free control could be confirmed by sequencing in both directions and thus, the mutation rate in the control may be overestimated. Thus, sequencing of a fragment of the nucleic acid encoding HIV reverse transcriptase has confirmed that 5-aza-dC is mutagenic to the viral genome.

[5] = Cytotoxicity on MT-2 cells (MTT); type: cell-based; details: human
Protocol: For each compound, cytotoxicity was evaluated on MT-2 cells. MT-2 cells were seeded at 3×10^4 cells/well in 96-well plates. […] After 5 days growth in a 37° C. incubator containing 5% CO2, MTT was added to a final concentration of 0.5 mg/ml and then incubated for four hours at 37° C. 10% SDS in 0.02 N HCl was added to lyse the cells overnight at 37° C. The plates were read on a Tecan Genius microplate reader at wavelengths of 570 nm/650 nm. The dose response curve was graphed by comparing the treated cells with the untreated control and the IC50 was determined for each compound.

[6] = cited from earlier work
HIV = HIV infected SCID-Hu mice; type: in vivo; details: 30 mg/kg/day
Protocol: After completion of this toxicology experiment, SN1212 was tested in HIV infected SCID-Hu mice. […] The discordance between viral infectivity and conventional surrogate markers of viral load, such as p24 or HIV RNA, is not surprising, as it has also been observed in vitro, and reflects the increased proportion of non-infectious viral particles in the presence of SN1212. It is also interesting to note that, of the treated groups, the immunologic profile of the SN1212 groups most closely resemble that of the uninfected group. This is compatible with the finding that infection with less “fit” viruses provides a relative clinical benefit by preserving cellular immunity.

Compound: Nc1ncn([C@@H]2O[C@H](CO)[C@@H](O)[C@H]2O)c(=O)n1 [Compound 5-aza-C, 5-Azacytidine]
- EC50 [1]: 10000 nM
- EC50 [2]: 15000 nM

Compound: Cc1cn([C@H]2C[C@H](N=[N+]=[N-])[C@@H](CO)O2)c(=O)[nH]c1=O [AZT, zidovudine]
- EC50 (HIV-1 LAI): 10 nM
- EC50 [3]: 300 nM
- EC50 (HIV-1 LAI-M184V): 10 nM
- EC50 [4]: 60 nM

Compound: Nc1ncn([C@H]2C[C@H](O)[C@@H](CO)O2)c(=O)n1 [Compound 5-aza-dC, 2′-deoxy-5-azacytidine]
- EC50 (HIV-1 LAI): 3 nM
- eradication of HIV (HIV-1 LAI; viral passage in MT-2 cells): capable of eradicating HIV in a single passage
- EC50 [3]: 5 nM
- EC50 (HIV-1 LAI-M184V): 10 nM
- EC50 [4]: 10 nM
- mutation rate % (HIV-1 RT proviral DNA; 1 kb region of HIV-1 RT proviral DNA): 0.223%
- MUTATIONS/NUCLEOTIDE (HIV-1 RT proviral DNA; 1 kb region of HIV-1 RT proviral DNA, 26,187 nucleotides sequenced): 61/
- AΠC CΠA mutations (HIV-1 RT proviral DNA; number of mutations): 0
- AΠT TΠA mutations (HIV-1 RT proviral DNA; number of mutations): 8
- CΠG GΠC mutations (HIV-1 RT proviral DNA; number of mutations): 13
- GΠA AΠG mutations (HIV-1 RT proviral DNA; number of mutations): 24
- GΠT TΠG mutations (HIV-1 RT proviral DNA; number of mutations): 10
- TΠC CΠT mutations (HIV-1 RT proviral DNA; number of mutations): 6
- IC50 at 5 days [5]: > 10000 nM
- time to 10% degradation ([6]; pH 7.0, 25° C.): 5 h
- time to 10% degradation ([6]; pH 7.0, 50° C.): 0.5 h

Compound: CN1CN([C@H]2C[C@H](O)[C@@H](CO)O2)C(=O)N=C1N [MeDHAdC, 5-methyl-5,6-dihydro-5-azadeoxycytidine]
- EC50 (HIV-1 LAI): 10000 nM

Compound: Nc1ccn([C@@H]2CS[C@H](CO)O2)c(=O)n1 [Compound 3TC, lamivudine, reference compound]
- EC50 (HIV-1 LAI): 45 nM
- EC50 [3]: 330 nM
- EC50 (HIV-1 LAI-M184V): > 32000 nM
- CD4+ (HIV): 6.9%
- CD4+ CD8+ (HIV): 77%
- CD8+ (HIV): 4.2%
- HIV-1 RNA (HIV; ** p < 0.05): 2.0** log copies/10^6 cells
- Viral liter (HIV; ** p < 0.05): 0** viruses/10^6 cells
- p24 (HIV; ** p < 0.05): 0** pg/10^6 cells
